Results as given in patent US11179391B2, “Compound with kinase inhibitory activity and preparation method and use thereof” (priority 2017, dated 2021).

What was measured:
[1] = target: CDK6/cycD3 (Homo sapiens, UniProt Q00534); assay: Determination of CDK activity (Caliper mobility shift, FAM-P8 peptide): CDK6; format: biochemical; conditions: CDK6/cycD3; read-out: CDK6 enzymatic inhibitory activity (IC50)
In short: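 GST-CDK6(1-326)/cycD3 with FAM-P8 peptide and ATP, after 10 min room-temperature enzyme–compound preincubation; reaction at 28 °C, then EDTA stop. Substrate conversion read by Caliper mobility shift; inhibition from no-compound and no-enzyme controls, IC50 fitted over 10-point dilution in DMSO.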

[2] = Pharmacokinetic study in rats; format: in vivo, Sprague-Dawley rats; conditions: for F / Cmax / Tmax / clearance / half-life / AUC(0-t): male Sprague-Dawley rats; for F: iv 2 mg/kg and oral 5 mg/kg; for clearance in rat plasma (in words) / half-life in rat plasma (in words) / level of exposure at 24 h in rat plasma (in words): at the dose of 10 mg/kg; for Cmax / Tmax / clearance / half-life / AUC(0-t): rat, plasma, study dosed iv 2 mg/kg and oral 5 mg/kg, route of this parameter not given; for AUC(0-t): read-out: AUC0-24 h
Procedure: Healthy adult Sprague-Dawley rats, male, 7-10 weeks old, weighing 240-270 g, provided by Beijing Vital River Laboratory Animal Technology Co., Ltd., with an animal certificate number of 1140070278736.
Test compounds of the invention: example 17, 33, 40, and 57.
Intravenous administration solvent system of compounds: 10% (V/V) NMP and 90% (20% (V/V)) SBE-β-CD in 16.667 mM PBS with a concentration of 1.0 mg/mL.
Oral administration solvent system of compounds: pure water system containing 0.1% hydroxyethyl cellulose and 0.5% Tween-80, with a concentration of 1 mg/mL.
Intravenous administration: 3 male Sprague-Dawley rats of each test compound were injected intravenously after fasting overnight, with a dose of 2 mg/kg, and the dosing volume was 2 mL/kg. […]
Before the administration, and after administration of 0.0833 (iv), 0.25, 0.5, 1, 2, 4, 8, 12, and 24 h, the jugular vein puncture (approximately 0.15 mL per time point) of each animal was performed by collecting blood from polypropylene tubes. All blood samples were transferred to pre-cooled EDTA-K2 test tubes or pre-cooled plastic microcentrifuge tubes containing 3 μL of 0.5 M EDTA-K2 as anticoagulant and placed on wet ice until centrifugation. Each collected blood was centrifuged at 4° C. for 15 minutes, and plasma was collected. All plasma would be stored in a freezer at about −80° C. until LCMS/MS detection.

[3] = test system: Human breast cancer MCF-7 cells; assay: Pharmacodynamic study on mouse MCF-7 model (subcutaneous xenograft); format: in vivo, BALB/c nude mice; conditions: for Tumor volume (day 0) / antitumor effect compared with Abemaciclib (in words) / Tumor volume (day 14) / T/C relative tumor proliferation rate / TGI tumor growth inhibition rate: MCF-7 model; for Tumor volume (day 0): baseline at start of dosing; for Tumor volume (day 0) / Tumor volume (day 14) / T/C relative tumor proliferation rate / TGI tumor growth inhibition rate: mesylate, 30 mg/kg PO × 14 days; for antitumor effect compared with Abemaciclib (in words): same dosage (30 mg/kg PO × 14 days); for T/C relative tumor proliferation rate / TGI tumor growth inhibition rate: day 14; for inhibitory effect on the tumor growth (in words): MCF-7 nude mouse model, 30 mg/kg, continuous PO administration for 14 days
[4] = test system: Human leukemia MV4-11 cells; assay: Pharmacodynamic study on mouse MV4-11 model (subcutaneous xenograft); format: in vivo, BALB/c nude mice; conditions: for tumor inhibition effect compared with Abemaciclib (in words) / Tumor volume (day 0) / Tumor volume (day 21) / T/C relative tumor proliferation rate / TGI tumor growth inhibition rate: MV4-11 model, 50 mg/kg PO × 21 days; for Tumor volume (day 0): baseline at start of dosing; for Tumor volume (day 0) / Tumor volume (day 21) / T/C relative tumor proliferation rate / TGI tumor growth inhibition rate: mesylate; for T/C relative tumor proliferation rate / TGI tumor growth inhibition rate: day 21; for inhibitory effect on the tumor growth (in words): MV4-11 nude mouse model, 50 mg/kg, continuous PO administration for 21 days

Sequence of CDK6/cycD3 (Q00534 whole entry): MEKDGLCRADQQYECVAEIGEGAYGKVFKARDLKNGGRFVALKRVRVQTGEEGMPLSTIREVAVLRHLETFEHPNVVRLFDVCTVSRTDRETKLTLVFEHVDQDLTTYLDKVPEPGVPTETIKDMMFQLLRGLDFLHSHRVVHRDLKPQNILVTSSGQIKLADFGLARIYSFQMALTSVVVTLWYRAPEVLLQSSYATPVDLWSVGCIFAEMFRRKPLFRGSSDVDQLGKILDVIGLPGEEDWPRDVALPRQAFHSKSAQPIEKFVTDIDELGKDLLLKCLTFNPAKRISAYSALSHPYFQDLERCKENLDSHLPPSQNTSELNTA
Sequence of CDK6/cycD3 (P30281 whole entry partner): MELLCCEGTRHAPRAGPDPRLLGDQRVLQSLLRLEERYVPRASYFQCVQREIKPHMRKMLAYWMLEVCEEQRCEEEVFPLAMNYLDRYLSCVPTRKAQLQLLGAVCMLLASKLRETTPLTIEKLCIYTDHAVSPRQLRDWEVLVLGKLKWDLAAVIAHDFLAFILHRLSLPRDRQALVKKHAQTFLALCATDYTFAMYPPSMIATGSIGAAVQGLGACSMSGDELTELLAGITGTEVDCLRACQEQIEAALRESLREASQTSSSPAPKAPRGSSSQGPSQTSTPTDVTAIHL

Structure (SMILES) | IC50 [1] [nM] | F [2] [%] | clearance in rat plasma (in words) [2] | half-life in rat plasma (in words) [2] | level of exposure at 24 h in rat plasma (in words) [2] | Cmax [2] [ng/mL] | Tmax [2] [h] | clearance [2] [mL/min/kg] | half-life [2] [min] | AUC(0-t) [2] [ng·h/mL] | Tumor volume (day 0) [3] [mm^3] | antitumor effect compared with Abemaciclib (in words) [3] | Tumor volume (day 14) [3] [mm^3] | T/C relative tumor proliferation rate [3] [%] | TGI tumor growth inhibition rate [3] [%] | inhibitory effect on the tumor growth (in words) [3] | tumor inhibition effect compared with Abemaciclib (in words) [4] | Tumor volume (day 0) [4] [mm^3] | Tumor volume (day 21) [4] [mm^3] | T/C relative tumor proliferation rate [4] [%] | also measured
CCN1CCC(C(C)c2ccc(Nc3ncc(F)c(-c4cc(F)c5nc(C)n(C(C)C)c5c4)n3)nc2)CC1 (single isomer, unassigned) [Example 17, (R or S)—N-(5-(1-(1-ethylpiperidin-4-yl)ethyl)pyridin-2-yl)-5-fluoro-4-(4-fluoro-1-isopropyl-2-methyl-1H-benzo[d]imidazol-6-yl) pyrimidin-2-amine] | < 100 | 66.9 | lower clearance | longer half-life | high level of exposure | 225 | 8 | 14.1 | 563 | 3580 | 210 | better antitumor effects than positive control compound Abemaciclib | 216 | 0.9 | 99.1 | strong inhibitory effect | equivalent to that of positive control compound Abemaciclib | 158 | 463 | 38 | TGI tumor growth inhibition rate [4]: 62%; inhibitory effect on the tumor growth (in words) [4]: good inhibitory effect
CCN1CCC(=Cc2ccc(Nc3ncc(F)c(-c4cc(F)c5nc(C)n(C(C)C)c5c4)n3)nc2)CC1 [Example 57, N-(5-((1-ethylpiperidin-4-ylidene)methyl)pyridin-2-yl)-5-fluoro-4-(4-fluoro-1-isopropyl-2-methyl-1H-benzo[d]imidazol-6-yl)pyrimidin-2-amine] | < 100 | 57.6 | lower clearance | longer half-life | high level of exposure | 205 | 8 | 14.8 | 702 | 3080 | 209 | better antitumor effects than positive control compound Abemaciclib | 290 | 12.5 | 87.5 | strong inhibitory effect | equivalent to that of positive control compound Abemaciclib | 158 | 491 | 41 | TGI tumor growth inhibition rate [4]: 59%; inhibitory effect on the tumor growth (in words) [4]: good inhibitory effect
